Laboratory results: article PMC4759522, “A fragment merging approach towards the development of small molecule inhibitors of Mycobacterium tuberculosis EthR for use as ethionamide boosters” (Organic & Biomolecular Chemistry, 2016)
Where two headings read alike, the source gives them in different places.

Experiments:
[1] = biological target: T1, EthR (Mycobacterium tuberculosis, UniProt P9WMC1); test: SPR functional assay: disruption of the interaction between EthR and its DNA operator; assay type: biochemical; settings: for LE: calculated using IC50 values determined by SPR; for fold improvement by SPR compared to compound 5: compared to merged compound 5
Experimental: (§1) containing NaCl (300 mM), Tris.HCl (20 mM, pH = 8.0) and DMSO-d6 (10% v/v) was prepared and placed in the sample cell of a MicroCal iTC200 microcalorimeter (GE Healthcare). The fragment solution was then titrated to the EthR solution over 39 injections (first injection of 0.4 μl and subsequent injections of 1.0 μl). Data was fitted to a one site binding model using Origin software.
(§2) Figure S6 ITC trace for 4-(4-(3-Oxo-3-(pyrrolidin-1-yl)propyl)piperidin-1-yl)benzonitrile 15 Surface plasmon resonance (SPR)
(§3) The SPR assay was carried out using a BIAcore T100 instrument as described previously.2 The assay was designed to measure the interaction of EthR with the ethA promoter DNA sequence (106 bp – experimental DNA), immobilised via biotin-streptavidin linkage onto an […]
(1 picture or pasted object on this page, not shown here)
SA Series S Sensor Chip (BIAcore). DNA from pUC19 (113 bp) was used as the control against non-specific binding. The experimental (106 bp) and control (113 bp) DNA fragments were produced as described previously.15,16 Biotinylated control and experimental DNA were immobilized to the chip surface to achieve stable fixation levels of 247 and 252 resonance units (RU) respectively.
For screening, EthR/ fragment solution (1-2 μM EthR and required concentration of fragment made up in running buffer (2 mM MgCl2, 10 mM Tris-Cl pH 7.5, 0.1 mM EDTA, 200 mM NaCl, 2% (v/v) DMSO) was flowed over the chip at 20 μL/min for 180 s. The dissociation time was 180 s. To determine binding levels, the response of the control channel at steady state was subtracted from that of the experiment channel. The chip was regenerated between samples using 0.03% w/v SDS in running buffer (passed at a flow rate of 20 μL/ min for 60 […]
For IC50 calculations, the SPR response of EthR binding to the immobilized DNA was measured at various concentrations of compound. The resulting RUs were used to fit the data using nonlinear regression with variable slope dose-response inhibition constrains on GrapfPad PRISM 5.00. IC50 values were calculated as the compound concentrations necessary to inhibit 50% of the maximal interaction between EthR and its DNA operator […]
Figure S7 IC50 curve (SPR) for N-((1-(4-Cyanophenyl)piperidin-4-yl)methyl)pyrrolidine-1-

[2] = biological target: T1, EthR; test: Isothermal titration calorimetry (ITC) binding to EthR; settings: for K D (ITC): n.d. = no heats of binding detected
From the text: Figure S5 Crystal structure of 28 bound to EthR (the two different binding modes for this ligand are super-imposed). Although the conformations of the side chains of residues Phe184 and Trp138 preclude the formation of sub-pockets III and IV in the sense of Figure S3, compound 28 is still capable of binding to the protein by altering the shape of the EthR hydrophobic cavity and moulding it around its own scaffold. (PDB code 5F0H) […]
Differential scanning fluorimetry (DSF)
DSF measurements were carried out using a Bio-Rad CFX Connect machine with a 96-well reaction module. Samples (50 μl each) containing EthR (20 μM), NaCl (150 mM), Tris.HCl (20 mM, pH = 8.5), SYPRO orange (2.5x) and test compound (100 µM) in water were prepared in 96-well plates. The 96-well plates were heated linearly from 25 °C to 95 °C using a temperature increment of 0.5 °C every 30 seconds. Melting curves represent plots of the fluorescence emission intensity at λmax 490/575 nm of each sample against temperature.
Melting temperatures (Tm) were determined as the temperatures at which the minima on the negative first derivatives of the melting curves occurred.
Isothermal titration calorimetry (ITC)
An aqueous solution of the fragment to be tested (1 mM) was prepared containing NaCl (300 mM), Tris.HCl (20 mM, pH = 8.0), d6-DMSO (10% v/v) and glycerol (to match the 10% v/v glycerol content in the EthR stock solution). A separate aqueous solution of EthR (50 μM) […]
(1 picture or pasted object on this page, not shown here) […]
as §1, §2, §3

[3] = biological target: T1, EthR; test: Fluorescence-based thermal shift (DSF) against EthR; assay type: binding; settings: fluorescent-based thermal shift against EthR, 100 μM compound

T1 sequence (P9WMC1 whole entry, looked up, the tested form may be a part): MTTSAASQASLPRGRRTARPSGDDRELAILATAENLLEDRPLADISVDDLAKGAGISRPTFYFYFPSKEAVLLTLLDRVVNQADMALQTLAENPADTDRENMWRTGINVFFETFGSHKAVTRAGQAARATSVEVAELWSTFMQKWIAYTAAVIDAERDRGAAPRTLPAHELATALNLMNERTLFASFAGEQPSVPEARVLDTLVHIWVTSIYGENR

Structure (SMILES)	IC50 [1]	Kd [2]	ΔT m [3]	also measured
O=C(CCC1CCCC1)N1CCCC1 [Compound 1]	280 µM	12 µM	+3.5 °C	LE [1]: 0.36
CNCc1ccc(N2CCCCC2)cc1 [Compound 2]			+3.8 °C	IC50 ([1]; disruption of EthR binding to its DNA operator, SPR, read-out: IC50 (SPR)): > 100 µM
CNCc1ccc(N2CCCN(C(=O)CCC3CCCC3)C2)cc1 [Compound 3, 3-cyclopentyl-1-(3-(4-((methylamino)methyl)phenyl)tetrahydropyrimidin-1(2H)-yl)propan-1-one]	> 100 µM			
O=C(CCC1CCCC1)Nc1cccc(N2CCCCC2)c1 [Compound 4]	> 100 µM		+4.5 °C	
CNCc1ccc(N2CCC(CCC(=O)N3CCCC3)CC2)cc1 [Compound 5]	35 µM	5 µM	+4.3 °C	fold improvement in disruption of EthR-DNA interaction (SPR IC50) compared to starting fragment 1 ([1]; compared to fragment 1): eight-fold
CN(Cc1ccc(N2CCC(CCC(=O)N3CCCC3)CC2)cc1)C(=O)OC(C)(C)C [Compound 14]	7 µM	3 µM	+6.3 °C	fold improvement by SPR compared to compound 5 [1]: five-fold
N#Cc1ccc(N2CCC(CCC(=O)N3CCCC3)CC2)cc1 [Compound 15, 4-(4-(3-Oxo-3-(pyrrolidin-1-yl)propyl)piperidin-1-yl)benzonitrile]	3 µM	1 µM	+7.5 °C	LE [1]: 0.34; fold improvement by SPR compared to compound 5 [1]: 10 fold; fold decrease in K D by ITC compared to compound 5 ([2]; compared to compound 5): five-fold
CCOC(=O)c1ccc(N2CCC(CCC(=O)N3CCCC3)CC2)cc1 [Compound 16]	3 µM		+9.3 °C	K D (ITC) [2]: binding could not be measured by ITC
N#Cc1ccc(N2CCC(CNC(=O)N3CCCC3)CC2)cc1 [Compound 17, N-((1-(4-Cyanophenyl)piperidin-4-yl)methyl)pyrrolidine-1-carboxamide]	4 µM		+7.2 °C	
CCOC(=O)c1ccc(N2CCC(CNC(=O)N3CCCC3)CC2)cc1 [Compound 18]	2 µM		+8.8 °C	
N#Cc1ccc(N2CCC(CNC(=O)C3CCCC3)CC2)cc1 [Compound 19]	25 µM		+5.9 °C	
CCOC(=O)c1ccc(N2CCC(CNC(=O)C3CCCC3)CC2)cc1 [Compound 20]	> 100 µM		+5.5 °C	
O=C(NCC1CCN(c2ccccn2)CC1)N1CCCC1 [Compound 21]	22 µM	24 µM	+3.8 °C	LE [1]: 0.31
O=C(NCC1CCN(c2ncccn2)CC1)N1CCCC1 [Compound 22]	20 µM	12 µM	+3.7 °C	
N#Cc1ccc(N2CCC(CCC(=O)Nc3cccc(N4CCCCC4)c3)CC2)cc1 [Compound 23, 3-(1-(4-cyanophenyl)piperidin-4-yl)-N-(3-(piperidin-1-yl)phenyl)propanamide]	> 100 µM			K D (ITC) [2]: could not be observed by ITC
N#Cc1ccc(N2CCC(CCC(=O)NCc3ccc(N4CCCCC4)cc3)CC2)cc1 [Compound 28]	33 µM			K D (ITC) [2]: could not be observed by ITC
N#Cc1ccc(N2CCC(CCC(=O)NCc3cccc(N4CCCCC4)c3)CC2)cc1 [Compound 29]	52 µM		+9.2 °C	K D (ITC) [2]: could not be observed by ITC
